US20220193063A1, “METABOLITES OF GLP1R AGONISTS” (Pfizer Inc., priority 2020, published 2022)

Legend:
[1] = test system: male cryopreserved cynomolgus monkey hepatocytes; experiment: In vitro metabolism of Compound 1 in monkey cryopreserved hepatocytes; format: in vitro ADME; conditions: HPLC/UV/MS; for metabolite of Compound 1 observed in monkey hepatocyte incubations: 10 μM Compound 1, 7.5×10^5 cells/mL, 1 and 4 hrs composite sample; for Relative abundance of metabolite of Compound 1, Monkey: monkey cryopreserved hepatocytes; as to Relative abundance of metabolite of Compound 1, Monkey: key: ND Not detected; trace: Trace: observed by HPLC/MS measurements only; + Minor as assessed by HPLC/UV measurements; ++ moderate as assessed by HPLC/UV measurements; +++ major as assessed by HPLC/UV measurements; * m/z 593 and m/z 505 co-eluted in rabbit hepatocytes; ** m/z 591c and m/z 593 were merged in human hepatocytes and Hepatopack; *** m/z 607 and m/z 751b were merged in rabbit hepatocytes
Experimental: (§1) Male CD-1 mouse hepatocytes (lot YHL), male Wistar-Han rat hepatocytes (Celsis; product number: M000065; lot: SLA), female New Zealand rabbit hepatocytes (lot 1510147), male cryopreserved cynomolgus monkey hepatocytes (Celsis; product number: M00305; lot: DNB) and mixed-gender cryopreserved human hepatocytes (Bioreclamation; product number: S01988; lot: DCM) were obtained for the hepatocyte in-vitro assessments.
(§2) At time 0 hrs 550 μL aliquots were removed from incubations and quenched with 5 volumes of ACN containing 0.1% formic acid. At 1 and 4 hrs, 275 μL aliquots were removed and quenched as above; these were combined in the same tube to prepare a composite sample. For all hepatocyte experiments, samples were processed by centrifugation at 1900×g for 5 minutes, and then the supernatant was transferred to clean glass tubes and evaporated to dryness under a stream of N2 using a Turbovap at 37° C. Sample residues were reconstituted in mobile phase prior to analysis by HPLC/UV/MS^n.
(§3) Samples were analyzed by HPLC/UV/MS^n using a Thermo Orbitrap Elite mass spectrometer in conjunction with a Thermo Open Accela UHPLC system. A 3.0×150 mm, 2.5 μm Acquity CSH C18 HPLC column (Waters) was heated to 45° C. for separation of analytes. The mobile phase was a gradient of A): water containing 0.1% formic acid, and B): acetonitrile. The flow rate was 450 μL/min, and the following gradient program was utilized: […]
(§4) UV absorbance was monitored with a photo-diode array detector from 220-450 nm. The mass spectrometer was operated in positive-ion mode with a HESI ion source at a potential of 3.0 kV, and capillary and source heater temperatures of 380 and 300° C., respectively. Sheath, auxiliary, and sweep gas flows were set to 45, 10, and 2 units, respectively. Full scan mass spectra were acquired over the range 120-1200 m/z at a resolving power of 30,000 (specified at m/z 400). Data-dependent MS^n spectra were acquired in an automated fashion at 15,000 resolving power using CID and HCD fragmentation with normalized collision energy settings of 28 and 65 V, respectively.
(§5) Metabolites were characterized by comparisons of mass spectral fragmentation patterns with that of a Compound 1 standard. All HPLC/UV/MS^n data were processed using Xcalibur v. 2.2, and integrated UV peak areas were subjected to weighted UV binning procedures utilizing an Excel template.

[2] = test system: male Wistar-Han rat hepatocytes; experiment: In vitro metabolism of Compound 1 in rat cryopreserved hepatocytes; format: in vitro ADME; conditions: HPLC/UV/MS; for metabolite of Compound 1 observed in rat hepatocyte incubations: 10 μM Compound 1, 7.5×10^5 cells/mL, 1 and 4 hrs composite sample; for Relative abundance of metabolite of Compound 1, Rat: rat cryopreserved hepatocytes; as to Relative abundance of metabolite of Compound 1, Rat: key: ND Not detected; trace: Trace: observed by HPLC/MS measurements only; + Minor as assessed by HPLC/UV measurements; ++ moderate as assessed by HPLC/UV measurements; +++ major as assessed by HPLC/UV measurements; * m/z 593 and m/z 505 co-eluted in rabbit hepatocytes; ** m/z 591c and m/z 593 were merged in human hepatocytes and Hepatopack; *** m/z 607 and m/z 751b were merged in rabbit hepatocytes
Experimental: as §1, §2, §3, §4, §5

[3] = test system: Male CD-1 mouse hepatocytes; experiment: In vitro metabolism of Compound 1 in mouse cryopreserved hepatocytes; format: in vitro ADME; conditions: HPLC/UV/MS; for metabolite of Compound 1 observed in mouse hepatocyte incubations: 10 μM Compound 1, 7.5×10^5 cells/mL, 1 and 4 hrs composite sample; for Relative abundance of metabolite of Compound 1, Mouse: mouse cryopreserved hepatocytes; as to Relative abundance of metabolite of Compound 1, Mouse: key: ND Not detected; trace: Trace: observed by HPLC/MS measurements only; + Minor as assessed by HPLC/UV measurements; ++ moderate as assessed by HPLC/UV measurements; +++ major as assessed by HPLC/UV measurements; * m/z 593 and m/z 505 co-eluted in rabbit hepatocytes; ** m/z 591c and m/z 593 were merged in human hepatocytes and Hepatopack; *** m/z 607 and m/z 751b were merged in rabbit hepatocytes
Experimental: as §1, §2, §3, §4, §5

[4] = test system: mixed-gender cryopreserved human hepatocytes; experiment: In vitro metabolism of Compound 1 in human cryopreserved hepatocytes; format: in vitro ADME; conditions: HPLC/UV/MS; for metabolite of Compound 1 observed in human hepatocyte incubations: 10 μM Compound 1, 7.5×10^5 cells/mL, 1 and 4 hrs composite sample; for Relative abundance of metabolite of Compound 1, Human: human cryopreserved hepatocytes
Experimental: as §1, §2, §3, §4, §5

[5] = test system: female New Zealand rabbit hepatocytes; experiment: In vitro metabolism of Compound 1 in rabbit cryopreserved hepatocytes; format: in vitro ADME; conditions: HPLC/UV/MS; for metabolite of Compound 1 observed in rabbit hepatocyte incubations: 10 μM Compound 1, 7.5×10^5 cells/mL, 1 and 4 hrs composite sample; for Relative abundance of metabolite of Compound 1, Rabbit: rabbit cryopreserved hepatocytes
Experimental: as §1, §2, §3, §4, §5

[6] = Circulating metabolites of Compound 1 in rat plasma following a 1.0 mg/kg IV bolus dose; format: in vivo; conditions: 1.0 mg/kg IV bolus dose of Compound 1, pooled plasma 0.033-24 hrs, male rats
Experimental: (§6) Plasma and bile samples were obtained from a bile duct cannulated rat experiment (Study PK-0111) in which a 1.0 mg/kg IV bolus dose was administered to fed male rats (N=3). No control plasma was available from this experiment.
Clin Pharmacol Ther 1981; 29(3):408-13]. The entire volume of each replicate Hamilton pool was combined to create a single pooled sample (576 μL) for analysis.
(§7) Pooled plasma and bile samples were extracted with ACN containing 0.1% formic acid, and after centrifugation at 1900×g, the supernatant was transferred to clean tubes and evaporated under N2 in a Turbovap set at 37° C. Residues were reconstituted in mobile phase (5:95 v:v ACN:0.1% aqueous formic acid) prior to analysis by HPLC/UV/MS^n.
as §3, §4, §5

[7] = Metabolites of Compound 1 in rat bile following a 1.0 mg/kg IV bolus dose (bile duct cannulated rat); format: in vivo; conditions: 1.0 mg/kg IV bolus dose of Compound 1, pooled bile 0-24 hrs, bile duct cannulated male rats
Experimental: as §6
Bile samples (0-3, 3-7, and 7-24 hrs) from individual animals were pooled in proportion to the amount collect in each interval. Then 0.5 mL of each individual pool was combined to prepare a composite sample for analysis.
as §7, §3, §4, §5

[8] = test system: human co-cultured hepatocytes (Hepatopack); experiment: In vitro metabolism of Compound 1 in human micropatterned co-cultured hepatocytes (Hepatopack); format: in vitro ADME; conditions: human co-cultured hepatocytes (Hepatopack); HPLC/UV/MS; also: key: ND Not detected; trace: Trace: observed by HPLC/MS measurements only; + Minor as assessed by HPLC/UV measurements; ++ moderate as assessed by HPLC/UV measurements; +++ major as assessed by HPLC/UV measurements; * m/z 593 and m/z 505 co-eluted in rabbit hepatocytes; ** m/z 591c and m/z 593 were merged in human hepatocytes and Hepatopack; *** m/z 607 and m/z 751b were merged in rabbit hepatocytes
Text: Micro-patterned co-cultured (MPCC) hepatocyte 24-well plates containing human donors (16 wells each) were provided by Ascendance Biotechnology (formerly Hepregen Corp. (Medford, Mass.). [see Wang W W W, Khetani S R, Krzyzewski S, et al. Assessment of a Micropatterned Hepatocyte Coculture System to Generate Major Human Excretory and Circulating Drug Metabolites. Drug Metab Dispos 2010; 38(10):1900-51 The MPCCs were created at Ascendance Biotechnology and maintained in serum containing medium for 5-6 days to allow for stabilization of the co-cultures prior to shipment. A mixed-gender cryopreserved pool of 10 human donors (X008001-P; lot YFA) was used to seed the plates and was purchased from BioreclamationlVT (Westbury, N.Y.). MPCC hepatocytes are plated with fibroblasts in a 1:3 ratio with ˜25,000 hepatocytes/well in a 24-well plate. 24-Well MPCC plates were shipped to Pfizer, fresh medium (400 μL/well) was applied and cultures were kept at 37° C. with […] and 95% relative humidity for two days. Micropatterned co-cultures containing pooled hepatocytes were allowed 7 days to fully stabilize with respect to liver-specific functions. […] At respective time points (0, 2, and 7 days), the culture medium was removed and mixed with 4 volumes of ACN, then stored frozen at −40° C. until samples could be analyzed. Samples were subsequently processed by the addition of 2.5 mL of 1:1 ACN:MeOH containing 0.1% formic acid. After vortexing, the samples were centrifuged at 1900×g for 5 min, then the supernatant was transferred to 15 mL conical tubes and evaporated under N2 using a Turbovap set at 37° C. The residues were reconstituted in mobile phase (5:95 v:v ACN:0.1% aqueous formic acid) prior to analysis by HPLC/UV/MS^n.
as §3
as §4, with “Data-dependent MS^n spectra were acquired in an automated fashion at 15,000 resolving power using CID and HCD fragmentation with normalized collision energy settings of 28 and 65 V, respectively.” left out

Row | SMILES | metabolite of Compound 1 observed in monkey hepatocyte incubations [1] | metabolite of Compound 1 observed in rat hepatocyte incubations [2] | metabolite of Compound 1 observed in mouse hepatocyte incubations [3] | metabolite of Compound 1 observed in human hepatocyte incubations [4] | metabolite of Compound 1 observed in rabbit hepatocyte incubations [5] | detected in rat plasma [6] | detected in rat bile [7] | Relative abundance of metabolite of Compound 1, Hepatopack [8] | Relative abundance of metabolite of Compound 1, Monkey [1] | Relative abundance of metabolite of Compound 1, Rat [2] | Relative abundance of metabolite of Compound 1, Mouse [3] | Relative abundance of metabolite of Compound 1, Human [4] | detected in rat plasma ([6]; listed as m/z 331) | detected in rat bile ([7]; listed as m/z 331) | Relative abundance of metabolite of Compound 1, Rabbit [5]
1 | C[C@]1(c2ccc(Cl)cn2)Oc2cccc(C3CCNCC3)c2O1 [Metabolite 331] | observed | observed | observed | observed | observed | observed | observed | trace | + | trace | + | + | detected | detected | trace
2 | O=C(O)c1ccc2nc(CN3CCC(c4cccc(O)c4O)CC3)n(C[C@@H]3CCO3)c2c1 [Metabolite 438, (S)-2-((4-(2,3-dihydroxyphenyl)piperidin-1-yl)methyl)-1-(oxetan-2-ylmethyl)-1H-benzo[d]imidazole-6-carboxylic acid] | observed as a trace metabolite | observed as a trace metabolite | – | observed as a trace metabolite | – | – | – | – | – | – | – | – | – | – | –
3 | O=C(O)c1ccc2nc(CN3CCC(c4cccc(O)c4O)CC3)n(C[C@@H]3CCO3)c2c1 [Metabolite 438] | – | – | – | – | – | – | – | – | trace | trace | – | trace | – | – | –
4 | C[C@]1(c2ccc(Cl)cn2)Oc2cccc(C3CCN(Cc4nc5ccc(C(=O)O)cc5[nH]4)CC3)c2O1 [Metabolite 505, (S)-2-((4-(2-(5-chloropyridin-2-yl)-2-methylbenzo[d][1,3]dioxol-4-yl)piperidin-1-yl)methyl)-1H-benzo[d]imidazole-6-carboxylic acid] | – | observed | observed | – | observed | – | – | – | – | – | – | – | – | – | –
5 | C[C@]1(c2ccc(Cl)cn2)Oc2cccc(C3CCN(Cc4nc5ccc(C(=O)O)cc5[nH]4)CC3)c2O1 [Metabolite 505] | – | – | – | – | – | – | – | – | – | trace | trace | – | – | – | –

Further lines, results first:

Row | metabolite of Compound 1 observed in monkey hepatocyte incubations [1] | metabolite of Compound 1 observed in rat hepatocyte incubations [2] | metabolite of Compound 1 observed in mouse hepatocyte incubations [3] | metabolite of Compound 1 observed in human hepatocyte incubations [4] | metabolite of Compound 1 observed in rabbit hepatocyte incubations [5] | detected in rat plasma [6] | detected in rat bile [7] | Relative abundance of metabolite of Compound 1, Hepatopack [8] | Relative abundance of metabolite of Compound 1, Monkey [1] | Relative abundance of metabolite of Compound 1, Rat [2] | Relative abundance of metabolite of Compound 1, Mouse [3] | Relative abundance of metabolite of Compound 1, Human [4] | detected in rat plasma ([6]; listed as m/z 331) | detected in rat bile ([7]; listed as m/z 331) | Relative abundance of metabolite of Compound 1, Rabbit [5] | SMILES
6 | observed | observed | observed | observed | observed | – | – | – | – | – | – | – | – | – | – | C[C@]1(c2ccc(Cl)cn2)Oc2cccc(C3CCN(Cc4nc5ccc(C(=O)O)cc5n4CC(O)CCO)CC3)c2O1 (stereo in doubt) [Metabolite 593]
7 | – | – | – | – | – | detected | detected | – | – | – | – | – | – | – | – | C[C@]1(c2ccc(Cl)cn2)Oc2cccc(C3CCN(Cc4nc5ccc(C(=O)O)cc5n4C[C@@H]4CCO4)CC3)c2O1 [Compound 1, 2-((4-((S)-2-(5-chloropyridin-2-yl)-2-methylbenzo[d][1,3]dioxol-4-yl)piperidin-1-yl)methyl)-1-(((S)-oxetan-2-yl)methyl)-1H-benzo[d]imidazole-6-carboxylic acid]
8 | observed | observed | observed | observed | observed | – | – | + | trace | trace | + | + | – | – | + | C[C@]1(c2ccc(Cl)cn2)Oc2cccc(-c3cc[n+](Cc4nc5ccc(C(=O)O)cc5n4C[C@@H]4CCO4)cc3)c2O1 [Metabolite 569]
9 | observed | observed | observed | observed | observed | – | – | – | – | – | – | – | – | – | – | C[C@]1(c2ccc(Cl)cn2)Oc2cccc(C3CC[N+]([O-])(Cc4nc5ccc(C(=O)O)cc5n4C[C@@H]4CCO4)CC3)c2O1 (stereo partly shown) [Metabolite 591d]
10 | – | – | – | – | – | – | – | ++ | +++ | + | ++ | +++ | – | – | ++ | CC1(c2ccc(Cl)cn2)Oc2cccc(C3CCN(Cc4nc5ccc(C(=O)OC6OC(C(=O)O)C(O)C(O)C6O)cc5n4CC4CCO4)CC3)c2O1 (stereo not shown) [Metabolite 751b]
